Results as given in PubChem BioAssay (NCI).
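A five-concentration, 48-hour dose response in 96-well plates underlies each endpoint, interpolated linearly between surrounding concentrations. GI50 marks 50% less growth. The concentration for full growth arrest is given as TGI.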

How the values were obtained:
Assay in all cases: inhibition of tumour cell growth, NCI panel, 48 h
[1] = system: NCI-H23 lung
[2] = system: HT29 colon
[3] = system: OVCAR-4 ovarian
[4] = system: ACHN renal
[5] = system: SF-539 CNS
[6] = system: K-562 leukemia
[7] = system: BT-549 breast
[8] = system: COLO 205 colon
[9] = system: SNB-19 CNS
[10] = system: M14 melanoma
[11] = system: EKVX NSCLC
[12] = system: T-47D breast
[13] = system: TK-10 renal
[14] = system: OVCAR-3 ovarian
[15] = system: A498 renal
[16] = system: U251 CNS
[17] = system: SNB-75 CNS
[18] = system: SK-MEL-28 melanoma
[19] = system: DU-145 prostate
[20] = system: PC-3 prostate
[21] = system: MDA-MB-231 breast
[22] = system: NCI-H226 lung
[23] = system: 786-0 renal
[24] = system: MCF7 breast
[25] = system: CAKI-1 renal
[26] = system: SK-MEL-5 melanoma
[27] = system: UO-31 renal
[28] = system: MALME-3M melanoma
[29] = system: MDA-MB-435
[30] = system: OVCAR-5 ovarian
[31] = system: NCI-H522 lung
[32] = system: SW-620 colon
[33] = system: HOP-92 NSCLC
[34] = system: SN12C renal
[35] = system: RPMI-8226 leukemia
[36] = system: IGROV1 ovarian
[37] = system: RXF 393 renal
[38] = system: HOP-62 NSCLC
[39] = system: A549 NSCLC
[40] = system: UACC-257 melanoma
[41] = system: OVCAR-8 ovarian
[42] = system: SK-OV-3 ovarian
[43] = system: SF-268 CNS
[44] = system: HCT-116 colon
[45] = system: CCRF-CEM leukemia
[46] = system: SR leukemia
[47] = system: HL-60(TB) leukemia
[48] = system: HCC-2998 colon
[49] = system: SK-MEL-2 melanoma
[50] = system: NCI/ADR-RES ovarian
[51] = system: HCT-15 colon
[52] = system: MOLT-4 leukemia
[53] = system: SF-295 CNS
[54] = system: LOX IMVI melanoma
[55] = system: KM12 colon
[56] = system: HS 578T breast
[57] = system: NCI-H460 lung
[58] = system: UACC-62 melanoma

`CSc1ccc(/C(=N/N=C(N)N)c2ccc(F)cc2)cc1` gave a GI50 [1] of 328 nM, a TGI [1] of 3870 nM and a GI50 [2] of 350 nM. It also gave a TGI [2] of 5470 nM, a GI50 [3] of 982 nM and a TGI [3] of 15600 nM. It also gave a GI50 [4] of 724 nM, a TGI [4] of 10500 nM and a GI50 [5] of 367 nM. It also gave a TGI [5] of 1650 nM, a GI50 [6] of 336 nM and a TGI [6] of 6520 nM. The GI50 [7] was 5600 nM, the TGI [7] was 17100 nM and the GI50 [8] was 415 nM. The TGI [8] was 1770 nM, the GI50 [9] was 424 nM and the TGI [9] was 12500 nM. The GI50 [10] was 308 nM, the TGI [10] was 1100 nM and the GI50 [11] was 600 nM. It also gave a TGI [11] of 13300 nM, a GI50 [12] of 560 nM and a TGI [12] of 11700 nM. For the same compound, the GI50 [13] was 2920 nM, the TGI [13] was 17200 nM and the GI50 [14] was 406 nM. For the same compound, the TGI [14] was 9680 nM, the GI50 [15] was 390 nM and the TGI [15] was 2960 nM. For the same compound, the GI50 [16] was 415 nM, the TGI [16] was 7130 nM and the GI50 [17] was 342 nM. It also gave a TGI [17] of 5560 nM, a GI50 [18] of 1410 nM and a TGI [18] of 11600 nM. It also gave a GI50 [19] of 415 nM, a TGI [19] of 3840 nM and a GI50 [20] of 466 nM. It also gave a TGI [20] of 11400 nM, a GI50 [21] of 807 nM and a TGI [21] of 10000 nM. The GI50 [22] was 1850 nM, the TGI [22] was 14700 nM and the GI50 [23] was 802 nM. The TGI [23] was 12500 nM, the GI50 [24] was 358 nM and the TGI [24] was 3690 nM. For the same compound, the GI50 [25] was 536 nM, the TGI [25] was 4820 nM and the GI50 [26] was 393 nM. It also gave a TGI [26] of 1490 nM, a GI50 [27] of 856 nM and a TGI [27] of 4450 nM. The GI50 [28] was 1010 nM, the TGI [28] was 3250 nM and the GI50 [29] was 230 nM. The TGI [29] was 551 nM, the GI50 [30] was 651 nM and the TGI [30] was 12700 nM. It also gave a GI50 [31] of 392 nM, a TGI [31] of 11700 nM and a GI50 [32] of 457 nM. It also gave a TGI [32] of 9760 nM, a GI50 [33] of 797 nM and a TGI [33] of 6110 nM. The GI50 [34] was 672 nM, the TGI [34] was 10000 nM and the GI50 [35] was 468 nM. The TGI [35] was 3160 nM, the GI50 [36] was 421 nM and the TGI [36] was 3470 nM. It also gave a GI50 [37] of 189 nM, a TGI [37] of 708 nM and a GI50 [38] of 755 nM. For the same compound, the TGI [38] was 9200 nM, the GI50 [39] was 480 nM and the TGI [39] was 10600 nM. It also gave a GI50 [40] of 1460 nM, a TGI [40] of 11200 nM and a GI50 [41] of 1290 nM. For the same compound, the TGI [41] was 14900 nM, the GI50 [42] was 780 nM and the TGI [42] was 15500 nM. The GI50 [43] was 787 nM, the TGI [43] was 11600 nM and the GI50 [44] was 346 nM. For the same compound, the TGI [44] was 4580 nM, the GI50 [45] was 414 nM and the TGI [45] was 15700 nM. It also gave a GI50 [46] of 360 nM, a TGI [46] of 1800 nM and a GI50 [47] of 273 nM. The TGI [47] was 873 nM, the GI50 [48] was 314 nM and the TGI [48] was 1180 nM. The GI50 [49] was 2670 nM, the TGI [49] was 17500 nM and the GI50 [50] was 1660 nM. The TGI [50] was 7250 nM, the GI50 [51] was 341 nM and the TGI [51] was 9850 nM. For the same compound, the GI50 [52] was 533 nM, the TGI [52] was 10900 nM and the GI50 [53] was 304 nM. The TGI [53] was 10500 nM, the GI50 [54] was 324 nM and the TGI [54] was 1550 nM. For the same compound, the GI50 [55] was 423 nM, the TGI [55] was 11700 nM and the GI50 [56] was 872 nM. The TGI [56] was 10500 nM, the GI50 [57] was 367 nM and the TGI [57] was 3400 nM. It also gave a GI50 [58] of 417 nM and a TGI [58] of 7300 nM.
